In ChEMBL document CHEMBL1201862, “PubChem BioAssay data set” (2004):
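48-hour exposure; five concentrations; linearly interpolated endpoints. At the GI50, growth is halved.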 Activity calls are given as the source filed them. Rule as the data show it: active = GI50 up to about 1.1 µM and inactive = higher.

How the values were obtained:
Assay in all cases: inhibition of tumour cell growth, NCI panel, 48 h
[1] = test system: CCRF-CEM
[2] = test system: 786-0
[3] = test system: COLO 205
[4] = test system: U-251
[5] = test system: MOLT-4
[6] = test system: UO-31
[7] = test system: IGROV-1
[8] = test system: DU-145
[9] = test system: OVCAR-3
[10] = test system: KM12
[11] = test system: TK-10
[12] = test system: SK-MEL-28
[13] = test system: RXF 393
[14] = test system: MDA-N
[15] = test system: SR
[16] = test system: EKVX
[17] = test system: A549
[18] = test system: OVCAR-4
[19] = test system: NCI-H522
[20] = test system: HCC 2998

Measured: GI50

CCCC(C)NC(=O)c1ccc(N(C)Cc2cnc3nc(N)nc(N)c3n2)cc1 (configuration not stated)
inactive: [1] 26.2 µM | [2] 10.5 µM | [3] 28.2 µM | [4] 14.8 µM | [5] 33.2 µM | [6] 46.1 µM | [7] 17.7 µM | [8] 27.2 µM | [9] 21.4 µM | [10] 31.3 µM | [11] 31.3 µM | [12] 18.5 µM | [13] 26.2 µM | [14] 14.6 µM | [15] 17.6 µM | [16] 56.9 µM

Nc1nc(Cl)cc(NCC2(CO)CCC(O)C2)n1 (configuration not stated)
inactive: [1] > 100 µM | [17] > 100 µM | [2] > 100 µM | [3] > 100 µM | [4] > 100 µM | [5] > 100 µM | [6] > 100 µM | [7] > 100 µM | [8] > 100 µM | [9] > 100 µM | [10] > 100 µM | [18] > 100 µM | [11] > 100 µM | [12] > 100 µM | [13] > 100 µM | [19] > 100 µM | [14] > 100 µM | [15] > 100 µM | [16] > 100 µM

COc1ccc([N+](=O)[O-])c2c(NCCCN(C)C)c(C)c(C)nc12
inactive: [1] > 100 µM | [17] 99.3 µM | [2] > 100 µM | [3] 26.2 µM | [4] > 100 µM | [5] > 100 µM | [6] > 100 µM | [7] 36.6 µM | [8] > 100 µM | [9] 96.6 µM | [10] > 100 µM | [18] 27.8 µM | [11] > 100 µM | [12] > 100 µM | [20] > 100 µM | [19] 27.9 µM | [14] > 100 µM | [15] 14.3 µM

CCCN(CCC)C(=O)c1c(N2CCN(C)CC2)c2cccnc2n2c(C)cnc12
inactive: [1] > 100 µM | [17] > 100 µM | [2] > 100 µM | [3] > 100 µM | [4] > 100 µM | [5] 85.9 µM | [6] 70 µM | [7] > 100 µM | [8] > 100 µM | [9] 94.8 µM | [10] > 100 µM | [18] > 100 µM | [11] > 100 µM | [12] > 100 µM | [13] 24.8 µM | [19] 33.1 µM | [14] > 100 µM | [15] 39.5 µM | [16] > 100 µM

Cc1ccc2c(c1)nc(N)n[n+]2[O-]
inactive: [1] > 100 µM | [17] > 100 µM | [2] > 100 µM | [3] > 100 µM | [4] > 100 µM | [5] > 100 µM | [6] > 100 µM | [7] > 100 µM | [8] > 100 µM | [9] > 100 µM | [10] > 100 µM | [18] > 100 µM | [11] > 100 µM | [12] > 100 µM | [19] > 100 µM | [14] > 100 µM | [15] > 100 µM | [16] > 100 µM

COc1ccc2c(C(=O)c3c(C)n(CCN4CCOCC4)c4ccccc34)cccc2c1
inactive: [1] 2.77 µM | [17] 24.5 µM | [2] 27.7 µM | [3] 12.2 µM | [4] 15.3 µM | [5] 19.4 µM | [6] 34 µM | [7] 36.6 µM | [8] 38 µM | [9] 12.1 µM | [10] 22.9 µM | [18] 21.2 µM | [11] 58.5 µM | [12] > 100 µM | [13] 22.1 µM | [19] 18.7 µM | [14] 17.9 µM | [15] 19.2 µM | [16] 31.6 µM

CC1=CC(=O)/C(=C/n2c(=S)[nH]c3ccccc32)C(=O)O1
inactive: [1] 58.9 µM | [17] > 100 µM | [2] > 100 µM | [3] > 100 µM | [4] > 100 µM | [5] > 100 µM | [6] > 100 µM | [7] > 100 µM | [8] > 100 µM | [9] > 100 µM | [10] > 100 µM | [18] > 100 µM | [11] > 100 µM | [20] > 100 µM | [13] 51.5 µM | [19] > 100 µM | [14] > 100 µM | [16] 76.4 µM

COc1ccc(NC(C)=O)c(C(O)CCNC(C)=O)c1 (configuration not stated)
inactive: [1] > 100 µM | [17] > 100 µM | [2] > 100 µM | [3] > 100 µM | [4] > 100 µM | [5] > 100 µM | [6] > 100 µM | [7] > 100 µM | [8] > 100 µM | [9] > 100 µM | [10] > 100 µM | [18] > 100 µM | [11] > 100 µM | [13] > 100 µM | [19] > 100 µM | [14] > 100 µM | [15] > 100 µM | [16] > 100 µM

Nc1ccccc1C(=O)CCc1c[nH]c2ccccc12
inactive: [17] > 100 µM | [2] 46.2 µM | [4] 27.4 µM | [5] > 100 µM | [6] 5.4 µM | [7] 35.7 µM | [8] > 100 µM | [9] > 100 µM | [10] > 100 µM | [18] 20.3 µM | [11] > 100 µM | [12] > 100 µM | [20] > 100 µM | [19] > 100 µM | [14] > 100 µM | [15] > 100 µM | [16] 48.3 µM

C=C(C)C1CCC2(CO)C(O)CC3(C)C(CCC4C5(C)CCC(O)C(C)(C)C5CCC43C)C12 (configuration not stated)
inactive: [1] 50 µM | [17] 10.6 µM | [2] 8.09 µM | [4] 2.81 µM | [5] 27.4 µM | [6] 3.82 µM | [7] 11.7 µM | [8] 35.6 µM | [9] 11.4 µM | [10] 6.97 µM | [11] 16.1 µM | [12] 10.4 µM | [13] 2.32 µM | [19] 6.58 µM | [14] 12.1 µM | [15] 42.8 µM | [16] 13.9 µM

NCCO/C=C/C(N)C(=O)O (configuration not stated) [AMINOETHOXYVINYLGLYCINE]
inactive: [1] > 100 µM | [17] > 100 µM | [2] > 100 µM | [3] > 100 µM | [4] > 100 µM | [6] > 100 µM | [7] > 100 µM | [8] > 100 µM | [9] > 100 µM | [10] > 100 µM | [18] > 100 µM | [11] > 100 µM | [12] > 100 µM | [20] > 100 µM | [13] > 100 µM | [19] 10.1 µM | [14] > 100 µM | [16] > 100 µM
